The record followed here is US8575091B1, “Amylin analogues and pharmaceutical compositions thereof” (Novo Nordisk A/S, priority 2012, dated 2013).

Each structure is given as a SMILES string. pEC50, pIC50: −log10 of the molar value. Numbered stars: 1 amine (or outer) side, 2 acyl side, 3 side chain; on linkers, the order of the positions; unused ones are H or OH. Bridge positions count the residues as written; N and C are the ends. Side chains are listed from the residue outwards. Peptide text beside a SMILES is read from it. * marks the point of attachment. C20 diacid = O=C(O)CCCCCCCCCCCCCCCCCCC(=O)*; γGlu = O=C(O)[C@H](CCC(=O)[*:2])N[*:1]

Assay [1] concerns the target T1, human amylin receptor (amylin 3(a) receptor: human calcitonin receptor + RAMP-3) (Homo sapiens, UniProt O60896+P30988).
T1 construct: expressed in transfected cells
T1 sequence (P30988 25-474): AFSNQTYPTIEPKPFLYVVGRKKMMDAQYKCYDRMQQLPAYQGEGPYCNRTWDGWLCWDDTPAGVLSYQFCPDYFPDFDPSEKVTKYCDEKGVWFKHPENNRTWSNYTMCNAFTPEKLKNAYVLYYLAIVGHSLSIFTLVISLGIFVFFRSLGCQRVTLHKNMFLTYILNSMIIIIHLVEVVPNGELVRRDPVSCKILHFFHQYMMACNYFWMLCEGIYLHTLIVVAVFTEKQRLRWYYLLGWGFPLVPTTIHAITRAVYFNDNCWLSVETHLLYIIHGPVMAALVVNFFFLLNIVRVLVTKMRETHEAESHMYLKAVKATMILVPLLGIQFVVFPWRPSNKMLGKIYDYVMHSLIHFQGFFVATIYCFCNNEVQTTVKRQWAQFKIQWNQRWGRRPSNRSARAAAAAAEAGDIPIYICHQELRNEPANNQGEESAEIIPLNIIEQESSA
T1 sequence (O60896 24-148 partner): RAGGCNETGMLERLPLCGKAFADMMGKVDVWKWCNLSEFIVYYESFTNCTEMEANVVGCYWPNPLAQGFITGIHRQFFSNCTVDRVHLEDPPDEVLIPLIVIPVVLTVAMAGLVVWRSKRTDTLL
Put plainly: Assay (II)a functional assay, human amylin receptor (CRE luciferase, BHK cells). The note with it: for pEC50: functional assay, human amylin receptor, read-out: hAmylin-R funct. EC50. The assay is classed as cell-based.

Assay [2] deals with T2, human calcitonin receptor (Homo sapiens, UniProt P30988).
T2 construct: expressed in transfected cells
T2 sequence (P30988 25-474): T1 sequence (P30988 25-474)
Put plainly: Assay (II)a functional assay, human calcitonin receptor (CRE luciferase, BHK cells).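 Note: luminescence from a CRE-driven luciferase reporter, read by single photon counting after cells were exposed to test samples for 3 h at 37 °C under 5% CO2.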 Type of assay: cell-based. The note with it: read-out: hCTR funct. EC50.

In assay [3] the target is T2, human calcitonin receptor. Put plainly: Assay (VII) binding to the human calcitonin receptor (SPA, 125I-Calcitonin).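 Note: cell membranes coupled to SPA beads, competitive displacement read by scintillation counting, IC50 derived from a one-site competition fit as a measure of receptor affinity.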 The note with it: read-out: hCTR bind IC50.
The target of assay [4] is T3, human amylin receptor (Homo sapiens, UniProt O60896+P30988).
T3 construct: expressed in transfected cells
T3 sequence (P30988 25-474): T1 sequence (P30988 25-474)
T3 sequence (O60896 24-148 partner): T1 sequence (O60896 24-148 partner)
Put plainly: Assay (V) binding to the human amylin receptor (SPA, 125I-rat amylin). Particulars: human amylin receptor membranes, SPA; read-out: hAmylin-R bind IC50. The essentials: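 SPA competition binding on membranes from Amylin 3(a)/CRE-luc cells, 35 ng/μL membranes with 0.05 mg/well beads. Buffer 50 mM Hepes pH 7.4, 1 mM CaCl2, 5 mM MgCl2, 0.1% OA, 0.02% Tween20. IC50 from one-site competition fit as affinity measure.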

The mark [5] stands for this setting: Table 6, human functional selectivity (hCTR EC50 / hAmylin-R EC50).

The term pEC50 denotes the EC50 on a negative log10 scale, so that one unit is a factor of ten. One may read the pIC50 as the IC50 on a negative log10 scale, so that one unit is a factor of ten. On to `CC[C@H](C)[C@H](NC(=O)[C@H](C)NC(=O)CNC(=O)[C@H](Cc1ccccc1)NC(=O)[C@H](CC(N)=O)NC(=O)[C@@H]1CCCN1C(=O)[C@H](CO)NC(=O)[C@H](CO)NC(=O)[C@H](Cc1c[nH]cn1)NC(=O)[C@H](CCCNC(=N)N)NC(=O)[C@H](CC(C)C)NC(=O)[C@H](Cc1ccccc1)NC(=O)[C@H](CC(N)=O)NC(=O)[C@H](C)NC(=O)[C@H](CC(C)C)NC(=O)[C@H](CCCNC(=N)N)NC(=O)[C@H](CCC(N)=O)NC(=O)[C@@H](NC(=O)[C@H](C)NC(=O)[C@@H]1CSSC[C@H](NC(=O)[C@@H](N)CCCCNC(=O)CC[C@H](NC(=O)CCCCCCCCCCCCCCC(=O)O)C(=O)O)C(=O)N[C@@H](CC(N)=O)C(=O)N[C@@H]([C@@H](C)O)C(=O)N[C@@H](C)C(=O)N[C@@H]([C@@H](C)O)C(=O)N1)[C@@H](C)O)C(=O)N1CCC[C@H]1C(=O)N[C@@H](CO)C(=O)N[C@@H](CO)C(=O)N[C@H](C(=O)N[C@@H](CC(N)=O)C(=O)N[C@H](C(=O)NCC(=O)N[C@@H](Cc1c[nH]cn1)C(=O)N[C@@H](CC(N)=O)C(=O)N[C@H](C(=O)N[C@@H](Cc1ccc(O)cc1)C(N)=O)[C@@H](C)O)C(C)C)[C@@H](C)O` [Example 111], for which the pEC50 in assay [1] was 10.47; in assay [2] it was 8.65. Moreover, the pIC50 was 7.97 in assay [3] and 9.24 in assay [4].
Taken in the same sequence, the figures for `CC[C@H](C)[C@H](NC(=O)[C@H](C)NC(=O)CNC(=O)[C@H](Cc1ccccc1)NC(=O)[C@H](CC(N)=O)NC(=O)[C@@H]1CCCN1C(=O)[C@H](CO)NC(=O)[C@H](CO)NC(=O)[C@H](Cc1c[nH]cn1)NC(=O)[C@H](CCCNC(=N)N)NC(=O)[C@H](CC(C)C)NC(=O)[C@H](Cc1ccccc1)NC(=O)[C@H](CC(N)=O)NC(=O)[C@H](C)NC(=O)[C@H](CC(C)C)NC(=O)[C@H](CCCNC(=N)N)NC(=O)[C@H](CCC(N)=O)NC(=O)[C@@H](NC(=O)[C@H](C)NC(=O)[C@@H]1CSSC[C@H](NC(=O)[C@@H](N)CCCCNC(=O)CC[C@H](NC(=O)CCCCCCCCCCCCC(=O)O)C(=O)O)C(=O)N[C@@H](CC(N)=O)C(=O)N[C@@H]([C@@H](C)O)C(=O)N[C@@H](C)C(=O)N[C@@H]([C@@H](C)O)C(=O)N1)[C@@H](C)O)C(=O)N1CCC[C@H]1C(=O)N[C@@H](CO)C(=O)N[C@@H](CO)C(=O)N[C@H](C(=O)N[C@@H](CC(N)=O)C(=O)N[C@H](C(=O)NCC(=O)N[C@@H](Cc1c[nH]cn1)C(=O)N[C@@H](CC(N)=O)C(=O)N[C@H](C(=O)N[C@@H](Cc1ccc(O)cc1)C(N)=O)[C@@H](C)O)C(C)C)[C@@H](C)O` [Example 112] were 10.55, 8.96, 7.61 and 8.98.
With `CC[C@H](C)[C@H](NC(=O)[C@H](C)NC(=O)CNC(=O)[C@H](Cc1ccccc1)NC(=O)[C@H](CC(N)=O)NC(=O)[C@@H]1CCCN1C(=O)[C@H](CO)NC(=O)[C@H](CO)NC(=O)[C@H](Cc1c[nH]cn1)NC(=O)[C@H](CCCNC(=N)N)NC(=O)[C@H](CC(C)C)NC(=O)[C@H](Cc1ccccc1)NC(=O)[C@H](CC(N)=O)NC(=O)[C@H](C)NC(=O)[C@H](CC(C)C)NC(=O)[C@H](CCCNC(=N)N)NC(=O)[C@H](CCC(N)=O)NC(=O)[C@@H](NC(=O)[C@H](C)NC(=O)[C@@H]1CSSC[C@H](NC(=O)[C@@H](N)CCCCNC(=O)CC[C@H](NC(=O)CCCCCCCCCCCCCCCCC(=O)O)C(=O)O)C(=O)N[C@@H](CC(N)=O)C(=O)N[C@@H]([C@@H](C)O)C(=O)N[C@@H](C)C(=O)N[C@@H]([C@@H](C)O)C(=O)N1)[C@@H](C)O)C(=O)N1CCC[C@H]1C(=O)N[C@@H](CO)C(=O)N[C@@H](CO)C(=O)N[C@H](C(=O)N[C@@H](CC(N)=O)C(=O)N[C@H](C(=O)NCC(=O)N[C@@H](Cc1c[nH]cn1)C(=O)N[C@@H](CC(N)=O)C(=O)N[C@H](C(=O)N[C@@H](Cc1ccc(O)cc1)C(N)=O)[C@@H](C)O)C(C)C)[C@@H](C)O` [Example 113], the figures for the pEC50 in assay [1] and in assay [2] were 10.02 and 8.23, respectively. Besides, the results for the pIC50 in assay [3] and in assay [4] were 7.64 and 9.42, respectively.
`CC[C@H](C)[C@H](NC(=O)[C@H](C)NC(=O)CNC(=O)[C@H](Cc1ccccc1)NC(=O)[C@H](CC(N)=O)NC(=O)[C@@H]1CCCN1C(=O)[C@H](CO)NC(=O)[C@H](CO)NC(=O)[C@H](Cc1c[nH]cn1)NC(=O)[C@H](CCCNC(=N)N)NC(=O)[C@H](CC(C)C)NC(=O)[C@H](Cc1ccccc1)NC(=O)[C@H](Cc1c[nH]cn1)NC(=O)[C@H](C)NC(=O)[C@H](CC(C)C)NC(=O)[C@H](CCCNC(=N)N)NC(=O)[C@H](CCC(N)=O)NC(=O)[C@@H](NC(=O)[C@H](C)NC(=O)[C@@H]1CSSC[C@H](NC(=O)[C@@H](N)CCCCNC(=O)CC[C@H](NC(=O)CCCCCCCCCCCCCCCCCCC(=O)O)C(=O)O)C(=O)N[C@@H](CC(N)=O)C(=O)N[C@@H]([C@@H](C)O)C(=O)N[C@@H](C)C(=O)N[C@@H]([C@@H](C)O)C(=O)N1)[C@@H](C)O)C(=O)N1CCC[C@H]1C(=O)N[C@@H](CO)C(=O)N[C@@H](CO)C(=O)N[C@H](C(=O)N1CCC[C@H]1C(=O)N[C@H](C(=O)NCC(=O)N1CCC[C@H]1C(=O)N[C@@H](CC(N)=O)C(=O)N[C@H](C(=O)N[C@@H](Cc1ccc(O)cc1)C(N)=O)[C@@H](C)O)C(C)C)[C@@H](C)O` [Example 116] (H-K([γGlu-C20 diacid])CNTATCATQRLAHFLRHSSPNFGAIPSSTPVGPNTY-NH2; disulfide 2-7): the “Ratio hCT/hAmylin funct.” value in assay [1] (setting [5]) is reported as 4.9. The pEC50 was 10.15 in assay [1] and 9.46 in assay [2]. The pIC50 in assay [3] is 8.69; in assay [4], 10.09.
Consider `CC[C@H](C)[C@H](NC(=O)[C@H](C)NC(=O)CNC(=O)[C@H](Cc1ccccc1)NC(=O)[C@H](CC(N)=O)NC(=O)[C@@H]1CCCN1C(=O)[C@H](CO)NC(=O)[C@H](CO)NC(=O)[C@H](Cc1c[nH]cn1)NC(=O)[C@H](CCCNC(=N)N)NC(=O)[C@H](CC(C)C)NC(=O)[C@H](Cc1ccccc1)NC(=O)[C@H](CCC(=O)O)NC(=O)[C@H](C)NC(=O)[C@H](CC(C)C)NC(=O)[C@H](CCCNC(=N)N)NC(=O)[C@H](CCC(N)=O)NC(=O)[C@@H](NC(=O)[C@H](C)NC(=O)[C@@H]1CSSC[C@H](NC(=O)[C@@H](N)CCCCNC(=O)CC[C@H](NC(=O)CC[C@H](NC(=O)CCCCCCCCCCCCCCCCCCC(=O)O)C(=O)O)C(=O)O)C(=O)N[C@@H](CC(N)=O)C(=O)N[C@@H]([C@@H](C)O)C(=O)N[C@@H](C)C(=O)N[C@@H]([C@@H](C)O)C(=O)N1)[C@@H](C)O)C(=O)N[C@@H](CC(C)C)C(=O)N[C@@H](CO)C(=O)N[C@@H](CO)C(=O)N[C@H](C(=O)N1CCC[C@H]1C(=O)N[C@H](C(=O)NCC(=O)N1CCC[C@H]1C(=O)N[C@@H](CCC(=O)O)C(=O)N[C@H](C(=O)N[C@@H](Cc1ccc(O)cc1)C(N)=O)[C@@H](C)O)C(C)C)[C@@H](C)O` [Example 121] (H-K([γGlu-γGlu-C20 diacid])CNTATCATQRLAEFLRHSSPNFGAILSSTPVGPETY-NH2; disulfide 2-7), for which the “Ratio hCT/hAmylin funct.” value in assay [1] (setting [5]) came to 5.8; in assay [1] (Table 6a, human functional selectivity (hCTR EC50 / hAmylin-R EC50), at least 5), 5.8; in assay [1] (Table 6i, hCTR funct. EC50 / hAmylin-R funct. EC50), 5.8; in assay [1] (hCTR funct. EC50 divided by hAmylin-R funct. EC50), 5.8. Besides, the pEC50 in assay [1] was 9.65; in assay [2], 8.89. Besides, the pIC50 is 8.81 in assay [3] and 10.16 in assay [4].
